Experimental data reported in article PMC11145269 (Proceedings of the National Academy of Sciences of the …, 2024).
Read-outs that look alike come from different tables or passages of the source. One block for each molecule: values may come before it.

Assays:
Assay in all cases: two-electrode voltage clamp, X. laevis oocytes
Format in all cases: cell-based
[1] = molecular target: T1, NALCN WT channel complex (+UNC79, UNC80, and FAM155A) (Homo sapiens, UniProt Q8IZF0)
T1 construct: codon-optimised human cDNAs in modified pcDNA3.1(+); four mRNAs 1:1:1:1 co-injected in Xenopus laevis oocytes; 7SX3 is the human channelosome structure used for modelling; with Protein unc-79 homolog; Protein unc-80 homolog; NALCN channel auxiliary factor 1

[2] = molecular target: T1, NALCN WT channel complex (+UNC79, UNC80, and FAM155A); details: buffer same
[3] = molecular target: T1, NALCN WT channel complex (+UNC79, UNC80, and FAM155A); details: inhibition of outward and inward currents, E/Z isomer mixture, buffer same
[4] = molecular target: T1, NALCN WT channel complex (+UNC79, UNC80, and FAM155A); details: buffer same; remark: listed apart in the source
[5] = molecular target: T2, NALCN WT channel complex (+UNC79, UNC80, and FAM155A) (Homo sapiens, UniProt Q8IZF0, L588A/M1145A/W311A/Y1436A)
T2 construct: codon-optimised human cDNAs in modified pcDNA3.1(+); four mRNAs 1:1:1:1 co-injected in Xenopus laevis oocytes; 7SX3 is the human channelosome structure used for modelling; with Protein unc-79 homolog; Protein unc-80 homolog; NALCN channel auxiliary factor 1

[6] = molecular target: T3, NALCN WT channel complex (+UNC79, UNC80, and FAM155A) (Homo sapiens, UniProt Q8IZF0, M1145A); details: read-out: % inhibition at 300 μM (-100 mV)
T3 construct: codon-optimised human cDNAs in modified pcDNA3.1(+); four mRNAs 1:1:1:1 co-injected in Xenopus laevis oocytes; 7SX3 is the human channelosome structure used for modelling; with Protein unc-79 homolog; Protein unc-80 homolog; NALCN channel auxiliary factor 1

[7] = read-out: % inhibition at 1 mM (+80 mV)
[8] = outward inhibited more than inward current
[9] = outward current inhibited, inward potentiated
[10] = read-out: % inhibition at 1 mM (-100 mV)

- inhibition at 1000 µM [1, 7]: 66.9 ± 4%
Compound: c1ccc(B(OB(c2ccccc2)c2ccccc2)c2ccccc2)cc1 [DPBA, diphenylborinic anhydride]

Compound: O=C(O)COCCN1CCN(C(c2ccccc2)c2ccc(Cl)cc2)CC1 (centres unmarked) [cetirizine]
- % inhibition at 1 mM ([2]; inhibition of outward and inward currents): two (cetirizine and (E/Z)-endoxifen) inhibited both outward and inward currents

Compound: CCC(=C(c1ccc(O)cc1)c1ccc(OCCNC)cc1)c1ccccc1 (mixture of isomers) [(E/Z)-endoxifen]
- % inhibition at 100 μM [3]: two (cetirizine and (E/Z)-endoxifen) inhibited both outward and inward currents

Compound: CC(CN1c2ccccc2Sc2ccccc21)N(C)C (centres unmarked) [promethazine]
- % inhibition at 1 mM [2, 8]: three (hydroxyzine, promethazine, and citalopram) had a stronger inhibitory effect on the outward

Compound: C=C[C@H]1CN2CC[C@H]1C[C@@H]2[C@@H](O)c1ccnc2ccc(OC)cc12 [quinidine]
- % inhibition at 300 μM [4, 9]: three inhibited the outward and potentiated the inward currents (quinidine, diltiazem, and propafenone)

Compound: CN(C)CCCC1(c2ccc(F)cc2)OCc2cc(C#N)ccc21 (centres unmarked) [citalopram]
- % inhibition at 1 mM [2, 8]: three (hydroxyzine, promethazine, and citalopram) had a stronger inhibitory effect on the outward

Compound: COc1ccc([C@@H]2Sc3ccccc3N(CCN(C)C)C(=O)[C@@H]2OC(C)=O)cc1 [diltiazem]
- % inhibition at 300 μM [4, 9]: three inhibited the outward and potentiated the inward currents (quinidine, diltiazem, and propafenone)

Compound: CCCNCC(O)COc1ccccc1C(=O)CCc1ccccc1 (centres unmarked) [propafenone]
- % inhibition at 300 μM [4, 9]: three inhibited the outward and potentiated the inward currents (quinidine, diltiazem, and propafenone)

- inhibition at 1000 µM [5, 10]: 32.9 ± 12.9%
- inhibition at 1000 µM [1, 10]: 70.2 ± 8.2%
Compound: NCCOB(c1ccccc1)c1ccccc1 [2-APB, 2-aminoethoxydiphenyl borate]

- inhibition at 1000 µM [1, 7]: 60.3 ± 4.3%
Compound: CN(C)CCOC(c1ccccc1)c1ccccc1 [DPH, diphenhydramine]

Compound: OCCOCCN1CCN(C(c2ccccc2)c2ccc(Cl)cc2)CC1 (centres unmarked) [hydroxyzine]
- % inhibition at 1 mM [2, 8]: three (hydroxyzine, promethazine, and citalopram) had a stronger inhibitory effect on the outward

Compound: CC(C)n1c(/C=C/C(O)CC(O)CC(=O)O)c(-c2ccc(F)cc2)c2ccccc21 (centres unmarked) [fluvastatin]
- % inhibition at 1 mM ([2]; inhibition of inward current only): one (fluvastatin) had no effect on the outward current, but inhibited the inward current efficaciously

Compound: Nc1nnc(-c2cccc(Cl)c2Cl)c(N)n1 [lamotrigine]
- % inhibition at 300 μM ([4]; inhibition of inward current): two selectively inhibited the outward (CP96345) or inward (lamotrigine) currents

- inhibition at 300 µM ([5]; read-out: % inhibition at 300 μM (-100 mV)): 64.8 ± 6.7%
- inhibition at 300 µM [6]: 31 ± 9.2%
Compound: O=C1NC(=O)C(c2ccccc2)(c2ccccc2)N1 [phenytoin]

Compound: COc1ccccc1CN[C@H]1C2CCN(CC2)[C@H]1C(c1ccccc1)c1ccccc1 [CP96345]
- % inhibition at 300 μM ([4]; inhibition of outward current): two selectively inhibited the outward (CP96345) or inward (lamotrigine) currents
